From PMC7066135, “The lipoprotein Pal stabilises the bacterial outer membrane during constriction by a mobilisation-and-capture mechanism” (Nature Communications, 2020) come the findings set out here.

The test concerns Pal-mCherry accumulation at the septum. The test is described as follows: TIRFM of Pal-mCherry accumulation at the division septum. It is filed as cell-based. As to conditions: dividing E. coli cells, mutant TolB; average of 30 cells. How it is done:
Overnight supplemented M9-glucose (2 mM MgSO4, 0.1 mM CaCl2, 0.4% (w/v) D-glucose) cultures were diluted in fresh medium with appropriate antibiotics and IPTG for strains expressing TolA from plasmids. Cultures were grown at 37 °C to OD600 0.3. Cells were centrifuged at 7000 × g for 1 min, resuspended in 1 ml of fresh media and treated with CCCP (0.1 mM, RT for 5 min, Sigma #C2759) for PMF decoupling, sodium azide (50 µg ml^−1, RT for 30 min, Sigma #S2002) for ATPase inhibition or chloramphenicol (30 µg ml^−1, 37 °C for 30 min, Sigma #C0378) for translation inhibition. […]
Live cells were imaged using an Oxford NanoImager (ONI) superresolution microscope equipped with four laser lines (405/473/561/640 nm) and ×100 oil immersion objective (Olympus 1.49 NA). Pal-mCherry fluorescence images were acquired by scanning a 50 µm × 80 µm area with a 561 nm laser (0.2 mW) set at 49° incidence angle (100 ms exposition), resulting in a 512 × 1024 pixel image. […] Images were recorded by NimOS software associated with the ONI instrument. If not noted otherwise, each image was acquired as a 100- or 200-frame stack for brightfield and fluorescence channels, respectively. […]
All images were analysed using ImageJ software. Fluorescence distribution along x-axis of cells was determined by the plot profile function with a line width of 4 points for TIRFM images and 40 or 80 for FRAP images. […]

For “TolB^AAA: Alanine-substitution of three key hydrophobic residues in E. coli TolB (Ile25Ala, Val26Ala, Ile27Ala)”, the “Pal-mCherry accumulation at division sites” value is “abolishes Pal-mCherry accumulation at the septum”.
